Results on ten molecules are retold here after publication PMC10418735, “Lipophilic Studies and In Silico ADME Profiling of Biologically Active 2-Aminothiazol-4(5H)-one Derivatives” (International Journal of Molecular Sciences, 2023).

Data set [1] in a line: Lipophilicity by RP-HPLC (methanol/water, RP-18 column). It is filed as physicochemical. To be noted: for −S (slope of the regression curve), RP–HPLC / log kw: methanol/water, RP-HPLC; for log kw: extrapolated to zero methanol concentration, 25 °C; for Φ0 (chromatographic lipophilicity parameter), RP–HPLC: Φ0 = −log kw/S. The method, then: The HPLC experiments were performed on the Shimadzu HPLC system (Kyoto, Japan) equipped with solvent delivery pump LC-20AD, UV–VIS detector model SPD-20A, degasser model DGU-20A5, a column oven model CTO-20A, and a column Superspher® 100 RP-18 (4 μm), Merck (Darmstadt, Germany). Methanol and water for HPLC from POCH (Gliwice, Poland) were used as solvents. Mobile phase methanol/water varied in the various ratios. Methanol concentration expressed as volume fraction v/v, varied in the range from 0.55 to 0.95 in constant steps of 0.05. Compounds 1–28 were dissolved in methanol (1 mg/mL). The mobile phase flow rate was 0.7 mL/min. The injection volume was 0.02 mL. All analyzes were performed at 25 °C. Experiments were performed in triplicate with similar results.
The retention coefficient k was calculated from the following relationship:(1) k=tr/tm−1, where tr [min]—retention time, and tm [min]—time for dead volume (measured by use of uracil).
To determine the linear relationship between the values of the log k parameter and the concentration of methanol in the mobile phase, the Soczewiński–Wachtmeister equation was used:(2) logk= log kw+SΦ, where log kw —value extrapolated to zero methanol concentration, Φ —methanol concentration in the mobile phase (volume fraction v/v), and S—the slope of the regression curve.
The parameter Φ0 was calculated from the equation:(3) Φ0=−log kw/S.

The nature of data set [2]: Lipophilicity by RP-TLC (methanol/water, HPTLC 60RP-18 plates). It is filed as physicochemical. To be noted: for −S (slope of the regression curve), RP–TLC / RM0: methanol/water, RP-TLC; for RM0: extrapolated to zero methanol concentration, 22 °C; for Φ0 (chromatographic lipophilicity parameter), RP–TLC: Φ0 = −RM0/S. How it is done: Specifically, 10 × 10 cm plates with silica gel HPTLC 60RP-18 WF254s (Merck, Darmstadt, Niemcy) were used as the stationary phase. Methanol and water for HPLC from POCH (Gliwice, Poland) were used as solvents. Methanol concentration expressed as volume fraction v/v, varied in the range from 0.5 to 0.7 in constant steps of 0.05. Test compounds were dissolved in methanol (2 mg/mL), and then samples (0.01 mL) of each were applied to plates, which were developed in a horizontal DS chamber (Chromdes, Lublin, Poland).
The developing distance was 8 cm. Developed plates were air-dried and observed under 254 nm ultraviolet lamp. All analyzes were performed at 22 °C. Experiments were performed in triplicate with similar results.
For all the compounds, the relative lipophilicity RM values for five methanol–water mobile phases were calculated by the use of the following formula:(4) RM=log[1−RF/RF].
The linear relationship between the RM values and the concentration of methanol in the mobile phase to determine the lipophilicity parameters RM0 is described by the following equation:(5) RM=RM0+SΦ, where Φ —methanol concentration in the mobile phase (volume fraction v/v), and S—the slope of the regression curve.
The quantity Φ0 was calculated from the following equation:(6) Φ0=−RM0/S.

Consider `O=C1N=C(NC23CC4CC(CC(C4)C2)C3)SC12CCCCC2` [Compound 26], for which, in data set [1], the “−S (slope of the regression curve), RP–HPLC” value is 5.192; the log kw is 4.49; the “Φ0 (chromatographic lipophilicity parameter), RP–HPLC” value amounted to 0.865. Moreover, in data set [2], the “−S (slope of the regression curve), RP–TLC” value came out at 3.520; the RM0 is 3.09; the “Φ0 (chromatographic lipophilicity parameter), RP–TLC” value is reported as 0.879.

`CC1SC(NC(C)(C)C)=NC1=O` (centres unmarked) [Compound 10]: in data set [1], the “−S (slope of the regression curve), RP–HPLC” value was determined as 3.122; the log kw was 1.74; the “Φ0 (chromatographic lipophilicity parameter), RP–HPLC” value is 0.557. Also, in data set [2], the “−S (slope of the regression curve), RP–TLC” value stood at 2.393; the RM0 is given as 1.57; the “Φ0 (chromatographic lipophilicity parameter), RP–TLC” value is on record as 0.658.

Turning to `CC(C)NC1=NC(=O)C2(CCC2)S1` [Compound 9], in data set [1], the “−S (slope of the regression curve), RP–HPLC” value is recorded as 2.890; the log kw is reported as 1.79; the “Φ0 (chromatographic lipophilicity parameter), RP–HPLC” value came to 0.619. For the same molecule, in data set [2], the “−S (slope of the regression curve), RP–TLC” value was 1.990; the RM0 is 1.37; the “Φ0 (chromatographic lipophilicity parameter), RP–TLC” value was 0.691.

For the molecule `CC(C)(C)NC1=NC(=O)C2(CCCCC2)S1` [Compound 17, 2-(tert-butylamino)-1-thia-3-azaspiro[4.5]dec-2-en-4-one], in data set [1], the “−S (slope of the regression curve), RP–HPLC” value amounted to 3.904; the log kw is 2.86; the “Φ0 (chromatographic lipophilicity parameter), RP–HPLC” value was determined as 0.732. Moreover, in data set [2], the “−S (slope of the regression curve), RP–TLC” value turned out to be 2.477; the RM0 is 1.89; the “Φ0 (chromatographic lipophilicity parameter), RP–TLC” value stood at 0.762.

Regarding `CC(C)NC1=NC(=O)C(c2ccc(Br)cc2)S1` (centres unmarked) [Compound 7], in data set [1], the “−S (slope of the regression curve), RP–HPLC” value amounted to 4.422; the log kw is on record as 3.22; the “Φ0 (chromatographic lipophilicity parameter), RP–HPLC” value was 0.728. In data set [2], the “−S (slope of the regression curve), RP–TLC” value came to 3.870; the RM0 was 2.85; the “Φ0 (chromatographic lipophilicity parameter), RP–TLC” value was determined as 0.736.

For `CC(C)C1SC(NC23CC4CC(CC(C4)C2)C3)=NC1=O` (centres unmarked) [Compound 22], in data set [1], the “−S (slope of the regression curve), RP–HPLC” value is given as 4.744; the log kw was 3.94; the “Φ0 (chromatographic lipophilicity parameter), RP–HPLC” value turned out to be 0.830. In data set [2], the “−S (slope of the regression curve), RP–TLC” value is reported as 3.175 and the RM0 was 2.67.

Regarding `CCC1SC(NC(C)(C)C)=NC1=O` (centres unmarked) [Compound 11], in data set [1], the “−S (slope of the regression curve), RP–HPLC” value is 3.073; the log kw was 1.88; the “Φ0 (chromatographic lipophilicity parameter), RP–HPLC” value came out at 0.612. In addition, in data set [2], the “−S (slope of the regression curve), RP–TLC” value was found to be 2.478; the RM0 is 1.59; the “Φ0 (chromatographic lipophilicity parameter), RP–TLC” value was found to be 0.643.

For the molecule `CC(C)C1SC(NC(C)(C)C)=NC1=O` (centres unmarked) [Compound 13], in data set [1], the “−S (slope of the regression curve), RP–HPLC” value is 3.585; the log kw is 2.39; the “Φ0 (chromatographic lipophilicity parameter), RP–HPLC” value came to 0.667. Further, in data set [2], the “−S (slope of the regression curve), RP–TLC” value is reported as 2.095; the RM0 is 1.46; the “Φ0 (chromatographic lipophilicity parameter), RP–TLC” value is listed as 0.699.

As for `CC1(C)SC(NC23CC4CC(CC(C4)C2)C3)=NC1=O` [Compound 23], in data set [1], the “−S (slope of the regression curve), RP–HPLC” value stood at 4.392; the log kw is 3.54; the “Φ0 (chromatographic lipophilicity parameter), RP–HPLC” value was found to be 0.806. For the same molecule, in data set [2], the “−S (slope of the regression curve), RP–TLC” value was 2.446; the RM0 is on record as 2.11; the “Φ0 (chromatographic lipophilicity parameter), RP–TLC” value was determined as 0.863.

Turning to `CC(C)NC1=NC(=O)C(c2ccccc2)S1` (centres unmarked) [Compound 6], in data set [1], the “−S (slope of the regression curve), RP–HPLC” value is 4.3069; the log kw is listed as 2.84; the “Φ0 (chromatographic lipophilicity parameter), RP–HPLC” value is recorded as 0.659. Further, in data set [2], the “−S (slope of the regression curve), RP–TLC” value came out at 2.049; the RM0 was 1.58; the “Φ0 (chromatographic lipophilicity parameter), RP–TLC” value was determined as 0.771.
